In paper PMC6471523, “Biological Evaluation and Docking Analysis of Potent BACE1 Inhibitors from Boesenbergia rotunda” (Nutrients, 2019):
Values after ≈ are worked out from the molar mass of the structure shown.

Tests used:
BACE1 [1] = molecular target: T1, BACE1 (Homo sapiens, UniProt P56817); experiment: In vitro BACE1 enzyme inhibitory assay (fluorescence); format: biochemical; details: for IC50: 60 min, 25 °C, pH 4.5, mean ± SD of three experiments, read-out: IC50 (mean ± SD) against BACE1
T1 construct: purchased Invitrogen (Pan Vera, Madison, WI, USA)
T1 sequence (P56817 46-501): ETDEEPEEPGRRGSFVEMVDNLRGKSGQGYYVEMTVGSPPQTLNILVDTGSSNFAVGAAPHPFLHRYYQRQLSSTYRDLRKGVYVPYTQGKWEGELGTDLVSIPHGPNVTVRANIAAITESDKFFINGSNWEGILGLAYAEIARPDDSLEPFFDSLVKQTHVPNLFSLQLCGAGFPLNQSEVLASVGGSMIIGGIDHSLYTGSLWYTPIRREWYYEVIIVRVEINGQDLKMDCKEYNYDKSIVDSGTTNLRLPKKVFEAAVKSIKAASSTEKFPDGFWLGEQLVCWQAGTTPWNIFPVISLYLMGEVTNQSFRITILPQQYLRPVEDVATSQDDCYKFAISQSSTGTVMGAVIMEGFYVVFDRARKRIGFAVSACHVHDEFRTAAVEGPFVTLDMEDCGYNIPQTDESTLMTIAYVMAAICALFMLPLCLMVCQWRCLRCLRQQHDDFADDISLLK
Protocol: Enzyme assays for BACE1, TACE, chymotrypsin, trypsin, and elastase were carried out according to previously described methods [27]. Briefly, reaction mixtures containing human recombinant BACE1 (1.0 U/mL), a specific substrate (Rh-[sequence]-Quencher in 50 mM ammonium bicarbonate), and samples dissolved in an assay buffer (50 mM sodium acetate, pH 4.5) were incubated for 60 min at 25 °C in well plates. […] The inhibition ratio was obtained using the following equation:Inhibition (%) = [1 − (S − S0)/(C − C0)] × 100 where C was the fluorescence of control (enzyme, assay buffer, and substrate) after 60 min of incubation, C0 was the fluorescence of control at time 0, S was the fluorescence of tested samples (enzyme, sample solution, and substrate) after 60 min of incubation, and S0 was the fluorescence of the tested samples at time 0.

BACE1 [2] = molecular target: T1, BACE1; experiment: BACE1 inhibition kinetics (Dixon and Lineweaver–Burk plots); format: biochemical; details: for Inhibition Mode: Dixon and Lineweaver–Burk plots; for Ki: Dixon plot
Protocol: The dissociation constant (Ki) was obtained by Dixon plot and maximum reaction velocity (Vmax) and Michaelis–Menten constant (Km) values were determined by Lineweaver–Burk plot using SigmaPlot™ version 12.3 (Systat Software, Inc., San Jose, CA, USA).
The type of inhibition and kinetic analysis was determined using a Michaelis–Menten curve, Dixon plot, and Lineweaver–Burk plot (Figure 2). The three lines of the Dixon plots intersected on the x-axis of the same plot (Figure 2b,e,h). […] This pattern indicated non-competitive inhibitory activity against BACE1, thereby interacting with locations other than the active binding site for these compounds. For noncompetitive inhibition of enzymes, the Ki value of inhibitor is essentially the same numerical value as the IC50 [29].

human recombinant TACE = tested on: T2, human recombinant TACE; experiment: TACE (α-secretase) enzyme inhibitory assay; format: biochemical
T2 construct: purchased R&D Systems (Minneapolis, MN, USA)
Protocol: A human recombinant TACE (0.1 ppm in 25 mM Tris buffer), the substrate (APP peptide […] using EDANS/DABCYL), and samples were dissolved in an assay buffer, which were then combined and incubated for 60 min in the dark at 25 °C. The increase in fluorescence intensity produced by substrate hydrolysis was measured by using a microplate reader with excitation and emission wavelengths of 320 and 405 nm, respectively.

trypsin = experiment: Trypsin absorbance inhibition assay; format: biochemical
Protocol: (§1) Absorbance assays for trypsin, chymotrypsin, and elastase were estimated using N-benzoyl-ʟ-Arg-pNA, N-benzoyl-ʟ-Tyr-pNA, and N-succinyl-Ala-Ala-Ala-pNA as substrates, respectively. Enzyme, Tris-HCl buffer (0.05 M, in 0.02 M CaCl2, pH 8.2), and tested samples were incubated for 10 min at 25 °C then added to the substrate for 30 min at 37 °C. The absorbance was recorded at 410 nm. The inhibition ratio was obtained using the following equation:Inhibition (%) = {[1 − (A − B)]/control} × 100 where A was the absorbance of control (enzyme, assay buffer, and substrate) after 60 min of incubation, and B was the absorbance of the tested sample (assay buffer and sample solution) after 60 min of incubation.

chymotrypsin = tested on: T3, chymotrypsin; experiment: Chymotrypsin absorbance inhibition assay; format: biochemical
T3 construct: purchased Sigma-Aldrich (St. Louis, MO, USA)
Protocol: as §1

elastase = tested on: T4, elastase; experiment: Elastase absorbance inhibition assay; format: biochemical
T4 construct: purchased Sigma-Aldrich (St. Louis, MO, USA)
Protocol: as §1

[3] = Physicochemical properties for BBB permeability prediction; details: inferred from MW, PSA and clog P
Text: However, few BACE1 inhibitors have been marketed to treat AD due to the difficulty in developing therapeutic agents that can efficiently cross the BBB and reach appropriate concentrations in the cerebral parenchyma, and, moreover, can do so without side effects. Recently, QSAR study approaches have been used to generate predictive models for BBB permeability. […] Cardamonin has a MW of 270.28, a PSA value calculated as 66.76, and a clog P of 4.54, obtained by determining the partition coefficient between n-octanol and water.

HIV-1 protease = tested on: HIV-1 protease; design: method as in earlier work; details: cited from earlier work
[4] = design: method as in PMID 28271112; details: calculated; in Å2 (unit assumed); cited from earlier work
[5] = design: method as in PMID 29066742; details: 10 mg/kg, 30 weeks; cited from earlier work
BBB = details: in vitro study; cited from earlier work
[6] = tested on: rat model of global cerebral ischemia-reperfusion; details: oral, 10 mg/kg, 7 days; cited from earlier work
[7] = tested on: intracerebroventricular Aβ25–35-injected mice; details: oral, 20 mg/kg, 8 days; cited from earlier work
[8] = tested on: APP/PS1 transgenic mouse model; details: 40 mg/kg, 3-month period; cited from earlier work
Wister rats = details: 100 mg/kg, 7 days; cited from earlier work

Structure (SMILES)	IC50 (BACE1 [1]) [µM]	Inhibition Mode (BACE1 [2])	Ki (BACE1 [2]) [µM]	Inhibitory activity (%) TACE (human recombinant TACE; sample 100 μM) [%]	Inhibitory activity (%) Trypsin (trypsin; sample 100 μM) [%]	Inhibitory activity (%) Chymotrypsin (chymotrypsin; sample 100 μM) [%]	Inhibitory activity (%) Elastase (elastase; sample 100 μM) [%]	IC50 HIV-1 protease activity (HIV-1 protease) [µg/mL]	Inhibitory activity (%) TACE (human recombinant TACE; sample 10 μM) [%]	Inhibitory activity (%) Trypsin (trypsin; sample 10 μM) [%]	Inhibitory activity (%) Chymotrypsin (chymotrypsin; sample 10 μM) [%]	Inhibitory activity (%) Elastase (elastase; sample 10 μM) [%]	Toxicity or mutagenic effects after oral administration (Wister rats)	also measured
COc1cc(O)cc(O)c1C(=O)/C=C/c1ccccc1 [Cardamonin, 2′,4′-dihydroxy-6′-methoxychalcone]	4.35 ± 0.38	Noncompetitive	5.1	2.69 ± 1.44	3.74 ± 0.53	4.23 ± 0.55	1.41 ± 0.19	31.0 (≈ 115 µM)	–	–	–	–	–	BACE1 IC50 relative to resveratrol (BACE1 [1]; comparison of IC50 values): three-fold higher; BACE1 inhibition relative to pinocembrin and pinostrobin (BACE1 [1]; comparison of IC50 values): six-fold more effective; Inhibitory activity (%) TACE (human recombinant TACE; sample 50 μM): 1.38 ± 0.36%; Inhibitory activity (%) Trypsin (trypsin; sample 50 μM): 1.13 ± 0.18%; Inhibitory activity (%) Chymotrypsin (chymotrypsin; sample 50 μM): 6.20 ± 0.41%; Inhibitory activity (%) Elastase (elastase; sample 50 μM): 2.29 ± 0.41%; Predicted BBB crossing [3]: predicted to cross the BBB; polar surface area (PSA) [4]: 66.76; Toxicity after chronic oral administration [5]: did not elicit any apparent toxicity
O=C1CC(c2ccccc2)Oc2cc(O)cc(O)c21 (centres unmarked) [Pinocembrin, 5,7-dihydroxyflavanone]	27 ± 2.12	Noncompetitive	29.3	6.95 ± 1.52	4.96 ± 0.27	8.61 ± 1.09	2.56 ± 0.08	> 100	5.15 ± 0.98	4.35 ± 0.26	7.18 ± 1.87	3.24 ± 0.19	did not induce any toxicity or mutagenic effects	BBB crossing in vitro (BBB): could cross the BBB by passive transport partly through P-glycoprotein; Effect on hippocampal inflammation, oxidative stress and apoptosis [6]: suppressed hippocampal inflammation, oxidative stress, and apoptosis; Effect on cognitive impairment [7]: significantly improved cognitive impairment; Effect on cognitive deficits and neurovascular unit [8]: attenuated cognitive deficits and protected the neurovascular unit
COc1cc(O)c2c(c1)OC(c1ccccc1)CC2=O (centres unmarked) [Pinostrobin, 5-hydroxy-7methoxyflavanone]	28.4 ± 1.96	Noncompetitive	30.9	9.19 ± 1.20	1.52 ± 0.05	5.41 ± 0.49	2.63 ± 0.37	> 100	8.53 ± 1.05	3.19 ± 0.16	3.29 ± 0.25	5.21 ± 0.41	did not induce any toxicity or mutagenic effects	–
